In patent US9359371B2, “Bicyclic substituted pyrimidine compounds” (Xuanzhu Pharma Co., Ltd., priority 2012, dated 2016):
Where two headings read alike, the source gives them in different places.

Tests used:
[1] = molecular target: PDE-11 (Homo sapiens (Human), UniProt Q9HCR9); assay: Caliper Mobility-Shift PDE-11 Assay; format: biochemical; details: Table 4; maximum final concentration 10 μM
Description: Experiment 4: Measurement of Pharmacological Activity on PDE-11 Enzyme In Vitro
Method: enzyme assay, Caliper Mobility-Shift PDE-11 Assay
The test compound was accurately weighed, dissolved in DMSO, mixed thoroughly and formulated into 10 mM. The above stock solution was diluted to a concentration of 0.5 mM with DMSO, and then was gradiently diluted by a dilution factor of 3.162, resulting in 11 concentrations in total.
To a 96-well plate, 20 μL of 10 μM FL-cGMP as the substrate was added; then 1 μL solution of the compound in DMSO or DMSO solution without compound was added; and then 29 μL of 0.28 ng/μL PDE-11 enzyme buffer (100 mM Hepes pH 7.5, 5 mM MgCl2, 0.002% Brij-35) was added. The maximum final concentration of the compound was 10 μM. The plate was incubated at 30° C. for 1 h, and 20 μL of 70 μM EDTA was then added to stop the reaction. 26 μL of solution of each well was transferred to a 384-well plate. The conversion was read on a EZ reader II. The Inhibition rate was calculated by the formula below, and used to calculate IC50 by Prism 5.0 Inhibition rate=[Conversion (ZPE)−Conversion (sample)]×100/[Conversion (ZPE)−Conversion (HPE)]
Note: HPE: control without enzyme; ZPE: control without compound

[2] = molecular target: PDE-5A enzyme (Homo sapiens (Human), UniProt O76074); assay: Caliper Mobility-Shift PDE-5A Assay; format: biochemical; details: Table 1; Avanafil value is the control
Description: Experiment 1: Measurement of Enzymatic Activity In Vitro
PDE-5A enzyme: humanized PDE-5 enzyme, SignalChem, Cat#93-31G-20.
Method: enzyme assay, Caliper Mobility-Shift PDE-5A Assay:
The test compound was accurately weighed, dissolved in DMSO, mixed thoroughly and formulated into 10 mM.
The maximum final concentration of the compound was 10 μM. The plate was incubated at 30° C. for 1 h, and 20 μL of 70 μM EDTA was then added to stop the reaction. 26 μL of solution of each well was transferred to a 384-well plate. The conversion was read on a EZ reader II. The inhibition rate was calculated by the formula below, and used to calculate IC50 by Prism 5.0 Inhibition rate=[Conversion (ZPE)−Conversion (sample)]×100/[Conversion (ZPE)−Conversion (HPE)]
Note: HPE: control without enzyme; ZPE: control without a test compound

[3] = molecular target: PDE-5 enzyme (human blood platelets) (Homo sapiens (Human), UniProt O76074); assay: PDE-5 enzyme assay, [3H]cGMP; format: biochemical; details: Table 2; human blood platelet enzyme; read-out: IC50 on PDE-5
[4] = Pharmacokinetics (PK) in SD rats; format: in vivo; details: rat; for bioavailability: read-out: F % (absolute bioavailability)
Description: Experiment 9: Assay of Pharmacokinetics (PK) of the Compounds of the Present Invention in SD Rats
Compound 1-54 of the present invention were prepared by the methods described in Example 1 to Example 54 of the present invention.
The control drug Avanafil, of which the structure was stated above, was purchased commercially.
Collection of the rat's blood: The animal was fixed. The tail was warmed with a water bath 10 min before the collection time. About 200 μL of whole blood was collected from the tail vein. The collected blood was collected into anticoagulant tubes containing heparin sodium. The blood samples were centrifuged at 4° C. by 8000 rpm for 6 min to give the plasma samples, which should be prepared within 30 min after the collection of blood. The plasma samples were stored in a freezer of −80° C. until test.
The result output by Analyst 1.5.1 of AB Company was used as the concentration of the tested sample (plasma sample). The mean value, standard deviation, variable coefficient and the like were calculated by Microsoft Excel (except for the result directly output by Analyst 1.5.1). Parameters of PK were calculated by Pharsight Phoenix 6.2 software. Formula for calculating oral bioavailability: F %=AUCinf−po*Doseiv/AUCinf−iv*Dosepo.

[5] = SD, plasma, po, intragastric administration, 1 mg/kg
[6] = SD, plasma, intravenous injection, 1 mg/kg
[7] = SD, plasma, po, intragastric administration, 2 mg/kg

PDE-11, sequence (Q9HCR9 whole entry): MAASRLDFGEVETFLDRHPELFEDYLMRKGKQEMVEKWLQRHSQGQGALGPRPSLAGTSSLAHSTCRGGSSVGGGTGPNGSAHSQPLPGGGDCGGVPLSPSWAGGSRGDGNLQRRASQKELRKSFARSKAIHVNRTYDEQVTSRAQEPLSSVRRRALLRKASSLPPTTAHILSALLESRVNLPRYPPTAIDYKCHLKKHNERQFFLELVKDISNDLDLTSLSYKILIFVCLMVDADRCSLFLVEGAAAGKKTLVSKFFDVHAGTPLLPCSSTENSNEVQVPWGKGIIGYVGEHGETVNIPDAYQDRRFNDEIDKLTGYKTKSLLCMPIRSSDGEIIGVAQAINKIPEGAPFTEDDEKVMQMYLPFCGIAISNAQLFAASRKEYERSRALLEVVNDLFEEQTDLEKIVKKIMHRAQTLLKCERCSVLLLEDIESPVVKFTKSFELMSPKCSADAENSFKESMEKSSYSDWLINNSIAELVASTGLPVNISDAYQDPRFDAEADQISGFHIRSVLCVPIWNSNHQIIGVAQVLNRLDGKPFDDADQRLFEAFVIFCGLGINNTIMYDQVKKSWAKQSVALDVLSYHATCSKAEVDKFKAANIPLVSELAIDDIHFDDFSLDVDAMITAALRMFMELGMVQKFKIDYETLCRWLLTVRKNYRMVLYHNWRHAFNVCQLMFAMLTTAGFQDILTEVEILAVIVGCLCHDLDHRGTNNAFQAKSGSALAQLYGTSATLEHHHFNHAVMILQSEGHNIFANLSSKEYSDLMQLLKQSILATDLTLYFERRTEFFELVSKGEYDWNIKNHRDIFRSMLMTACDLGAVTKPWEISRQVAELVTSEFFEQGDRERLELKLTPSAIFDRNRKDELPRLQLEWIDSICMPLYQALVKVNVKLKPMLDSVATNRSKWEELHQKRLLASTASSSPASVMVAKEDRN

Row | Structure (SMILES) | IC50 [1] [nM] | IC50 [2] [nM] | further results
1 | COc1ccc(CNc2nc(N3CC4CC4C3)ncc2C(=O)NCc2ncccn2)cc1Cl (stereo not shown) [Compound 1, 2-(3-azabicyclo[3.1.0]hexan-3-yl)-4-((3-chloro-4-methoxybenzyl)amino)-N-(pyrimidin-2-ylmethyl)pyrimidine-5-formamide] | > 10000 | 6.04 | IC50 [3]: 6.04 nM
2 | COc1ccc(CNc2nc(N3CC4CC4C3)ncc2C(=O)NCc2cnc(C)cn2)cc1Cl (stereo not shown) [Compound 4, 2-(3-azabicyclo[3.1.0]hexan-3-yl)-4-((3-chloro-4-methoxybenzyl)amino)-N-((5-methylpyrazine-2-yl)methyl)pyrimidine-5-formamide] | > 10000 | 4.63 | 
3 | COc1ccc(CNc2nc(N3CC4CC4C3)ncc2C(=O)NCc2ccc(F)cc2)cc1Cl (stereo not shown) [Compound 5, 2-(3-azabicyclo[3.1.0]hexan-3-yl)-4-((3-chloro-4-methoxybenzyl)amino)-N-(4-fluorobenzyl)pyrimidine-5-formamide] | > 10000 | 17.4 | 
4 | COc1ccc(CNc2nc(N3CC4CC4C3)ncc2C(=O)NCCN2CCOCC2)cc1Cl (stereo not shown) [Compound 6, 2-(3-azabicyclo[3.1.0]hexan-3-yl)-4-((3-chloro-4-methoxybenzyl)amino)-N-(2-morpholinylethyl)pyrimidine-5-formamide] | > 10000 | 4.25 | 
5 | COc1ccc(CNc2nc(N3CC4CC4C3)ncc2C(=O)NCC2CCNCC2)cc1Cl (stereo not shown) [Compound 7, 2-(3-azabicyclo[3.1.0]hexan-3-yl)-4-((3-chloro-4-methoxybenzyl)amino)-N-(piperdin-4-ylmethyl)pyrimidine-5-formamide] | > 10000 |  | 
6 | COc1ccc(CNc2nc(N3CC4CC4C3)ncc2C(=O)N[C@H]2CCCCNC2=O)cc1Cl (stereo partly shown) [Compound 8, 2-(3-azabicyclo[3.1.0]hexan-3-yl)-4-((3-chloro-4-methoxybenzyl)amino)-N-((s)-caprolactam-3-yl)pyrimidine-5-formamide] | > 10000 | 13.2 | 
7 | COc1ccc(CNc2nc(N3CC4CC4C3)ncc2C(=O)NC2CCCCCC2)cc1Cl (stereo not shown) [Compound 9, 2-(3-azabicyclo[3.1.0]hexan-3-yl)-4-((3-chloro-4-methoxybenzyl)amino)-N-cycloheptanylpyrimidine-5-formamide] | > 10000 | 23.2 | 
8 | COc1ccc(CNc2nc(N3CCC4(CCC4)CC3)ncc2C(=O)NCc2ncccn2)cc1Cl [Compound 14, 4-((3-chloro-4-methoxybenzyl)amino)-N-(pyrimidin-2-ylmethyl)-2-(7-azaspiro[3.5]nonan-7-yl)pyrimidine-5-formamide] | > 10000 |  | AUC(0-inf) [4, 5]: 36 ng·h/mL; Cmax [4, 5]: 5.2 ng/mL; half-life [4, 5]: 171 min; bioavailability [4, 5]: 15%; AUC(0-inf) [4, 6]: 237 ng·h/mL; half-life [4, 6]: 88.2 min; Cl_obs ([4]; intravenous injection, 1 mg/kg): 71 mL/min/kg; Vss_obs ([4]; intravenous injection, 1 mg/kg): 8.73 L/kg
9 | COc1ccc(CNc2nc(N3CCC4(CCN(C)C4)C3)ncc2C(=O)NCc2ncccn2)cc1Cl (stereo not shown) [Compound 18, 4-((3-chloro-4-methoxybenzyl)amino)-2-(7-methyl-2,7-diazaspiro[4.4]nonan-2-yl)-N-(pyrimidin-2-ylmethyl)pyrimidine-5-formamide] | > 10000 |  | 
10 | COc1ccc(CNc2nc(N3CCC4(CC4)C3)ncc2C(=O)NCc2ncccn2)cc1Cl [Compound 41, 4-((3-chloro-4-methoxybenzyl)amino)-N-(pyrimidin-2-ylmethyl)-2-(5-azaspiro[2.4]heptan-5-yl)pyrimidine-5-formamide] |  | 22.9 | AUC(0-inf) [4, 7]: 67 ng·h/mL; Cmax [4, 7]: 43.8 ng/mL; Tmax [4, 7]: 30 min; half-life [4, 7]: 54.6 min; bioavailability [4, 7]: 17.7%; AUC(0-inf) [4, 6]: 188 ng·h/mL; half-life [4, 6]: 49.8 min; Cl_obs ([4]; intravenous injection, 1 mg/kg): 89.2 mL/min/kg; Vss_obs ([4]; intravenous injection, 1 mg/kg): 6.62 L/kg
11 | COc1ccc(CNc2nc(N3CCC4(CC4)C3)ncc2C(=O)NCCN2CCNCC2)cc1Cl [Compound 42, 4-((3-chloro-4-methoxybenzyl)amino)-N-(2-(piperazin-1-yl)ethyl)-2-(5-azaspiro[2.4]heptan-5-yl)pyrimidine-5-formamide] | > 10000 |  | 
12 | COc1ccc(CNc2nc(N3CCC4(CC4)C3)ncc2C(=O)N[C@H]2CC[C@H](N)CC2)cc1Cl [Compound 44, N-(trans-4-aminocyclohexyl)-4-(3-chloro-4-methoxybenzylamino)-2-(5-azaspiro[2.4]heptan-5-yl)pyrimidine-5-formamide] | > 10000 |  | 
13 | COc1ccc(CNc2nc(N3CCC4(CC4)C3)ncc2C(=O)NCC2CCC(O)CC2)cc1Cl (stereo not shown) [Compound 47, 4-((3-chloro-4-methoxybenzyl)amino)-N-(4-hydroxycyclohexyl)methyl-2-(5-azaspiro[2.4]heptan-5-yl)pyrimidine-5-formamide] | > 10000 |  | 
